Experiments:
Assay in all cases: relative viability (nuclei count vs DMSO), 5 days (fraction); higher = more cells survive
[1] = compound: CC1=C(C=C(C=C1)NC(=O)C2=CC(=CC=C2)C(C)(C)C#N)NC3=CC4=C(C=C3)N=CN(C4=O)C [AZ628] + Cc1nc(NC(=O)N2CCC[C@H]2C(N)=O)sc1-c1ccnc(C(C)(C)C(F)(F)F)c1 [Alpelisib] (partner 2 µM)
Procedure, shortened: (§1)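 Relative viability divides the nuclei count in treated wells by that in vehicle wells. Lung cancer cell lines were seeded in 1536-well plates, dosed by pin tool the next day, and fixed and stained after 5 days in one step with final 0.05% Triton X-100, 1% formaldehyde and 1 ug/ml Hoechst. Dosing was a single drug or a fixed anchor-drug dose plus five library-drug doses (not always all listed) in √10 steps, and values are medians of duplicate plates imaged at 4×.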

[2] = compound: CC1=C(C=C(C=C1)NC(=O)C2=CC(=CC=C2)C(C)(C)C#N)NC3=CC4=C(C=C3)N=CN(C4=O)C [AZ628] + Nc1ncn([C@H]2C[C@H](O)[C@@H](CO)O2)c(=O)n1 [Decitabine] (partner 2 µM)
Procedure, shortened: as §1

[3] = compound: C[As](C)SC[C@H](NC(=O)CC[C@H](N)C(=O)O)C(=O)NCC(=O)O [Darinaparsin] + CC(=O)c1c(C)c2cnc(Nc3ccc(N4CCNCC4)cn3)nc2n(C2CCCC2)c1=O [Palbociclib] (partner 0.5 µM)
Procedure, shortened: as §1

[4] = compound: C[As](C)SC[C@H](NC(=O)CC[C@H](N)C(=O)O)C(=O)NCC(=O)O [Darinaparsin] + O=C(CCCCCCC(=O)Nc1ccccc1)NO [Vorinostat] (partner 1 µM)
Procedure, shortened: as §1

Cell Line | relative viability ([1]; first compound 0.08 µM) | relative viability ([1]; first compound 0.253 µM) | relative viability ([1]; first compound 0.8 µM) | relative viability ([1]; first compound 2.53 µM) | relative viability ([1]; first compound 8 µM) | relative viability ([2]; first compound 0.08 µM) | relative viability ([2]; first compound 0.253 µM) | relative viability ([2]; first compound 0.8 µM) | relative viability ([2]; first compound 2.53 µM) | relative viability ([2]; first compound 8 µM) | relative viability ([3]; first compound 0.08 µM) | relative viability ([3]; first compound 0.8 µM) | relative viability ([3]; first compound 2.53 µM) | relative viability ([3]; first compound 8 µM) | relative viability ([4]; first compound 0.08 µM) | relative viability ([4]; first compound 0.8 µM) | relative viability ([4]; first compound 2.53 µM) | relative viability ([4]; first compound 8 µM)
201T | 1.08 | 1.03 | 1.13 | 1.09 | 1.12 | 0.869 | 0.859 | 0.874 | 0.911 | 0.858 | 0.345 | 0.342 | 0.363 | 0.368 | 1.03 | 0.905 | 0.917 | 1.14
A549 | 0.688 | 0.677 | 0.5 | 0.565 | 0.258 | 0.262 | 0.24 | 0.268 | 0.287 | 0.206 |  |  |  |  |  |  |  | 
A-427 | 1.02 | 1.06 | 0.624 | 0.635 | 0.222 | 0.58 | 0.582 | 0.494 | 0.52 | 0.451 | 0.585 | 0.494 | 0.567 | 0.549 | 0.898 | 0.811 | 0.951 | 0.893
ABC-1 | 1.16 | 1.05 | 1.17 | 1.1 | 0.906 | 1.07 | 0.898 | 1.07 | 1.18 | 1.07 | 0.879 | 0.6 | 0.744 | 0.729 | 1.59 | 1.09 | 1.05 | 1.26
BEN | 1.22 | 0.87 | 0.791 | 0.963 | 0.835 | 0.758 | 0.637 | 0.651 | 0.668 | 0.735 | 0.492 | 0.445 | 0.488 | 0.43 | 0.572 | 0.602 | 0.688 | 0.65
CAL-12T | 1.29 |  | 1.2 | 1.34 | 0.503 |  |  |  |  |  | 0.446 | 0.387 | 0.408 | 0.478 | 1.09 | 0.707 | 0.785 | 0.931
COR-L23 | 0.864 | 0.732 | 0.762 | 0.808 | 0.334 | 0.471 | 0.43 | 0.349 | 0.453 | 0.27 | 0.303 | 0.335 | 0.246 | 0.299 | 0.453 | 0.523 | 0.425 | 0.433
COR-L 105 | 0.998 | 1.27 | 0.921 | 1.03 | 0.632 | 0.74 | 0.692 | 0.668 | 0.613 | 0.559 | 0.456 | 0.373 | 0.397 | 0.382 | 0.908 | 0.656 | 0.822 | 0.932
Calu-6 | 0.937 | 0.835 | 0.416 | 0.541 | 0.171 |  |  |  |  |  |  |  |  |  |  |  |  | 
ChaGo-K-1 |  |  |  |  |  | 0.548 | 0.504 | 0.558 | 0.524 | 0.481 | 0.95 | 0.958 | 0.856 | 1.06 | 0.848 | 0.788 | 0.754 | 0.769
EBC-1 | 0.865 | 0.859 | 0.949 | 0.811 | 0.298 |  |  |  |  |  |  |  |  |  |  |  |  | 
EKVX | 0.909 | 0.903 | 0.949 | 0.983 | 0.866 | 0.367 | 0.369 | 0.401 | 0.266 | 0.287 | 0.451 | 0.365 | 0.366 | 0.38 | 0.787 | 0.653 | 0.764 | 0.737
EMC-BAC-2 | 0.704 | 0.645 | 0.681 | 0.608 | 0.706 | 0.944 | 0.84 | 0.874 | 0.749 | 0.465 | 0.516 | 0.491 | 0.515 | 0.54 | 0.554 | 0.417 | 0.546 | 0.42
EPLC-272H | 0.951 | 0.85 | 0.892 | 0.908 | 0.641 | 0.297 | 0.328 | 0.371 | 0.319 | 0.225 | 0.318 | 0.315 | 0.333 | 0.292 | 0.324 | 0.42 | 0.422 | 0.4
H3255 | 0.724 | 0.653 | 0.75 | 0.747 | 0.496 | 0.723 | 0.504 | 0.567 | 0.51 | 0.379 | 0.303 | 0.313 | 0.329 | 0.294 | 0.746 | 0.788 | 0.745 | 0.895
HARA | 0.68 | 0.763 | 0.907 | 0.726 | 0.391 | 0.414 | 0.441 | 0.461 | 0.448 | 0.289 | 0.25 | 0.257 | 0.21 | 0.29 | 0.582 | 0.532 | 0.575 | 0.621
HCC-15 | 0.967 | 0.742 | 0.707 | 0.699 | 0.392 | 0.633 | 0.521 | 0.426 | 0.481 | 0.29 | 0.639 | 0.773 | 0.723 | 0.882 | 0.911 | 0.839 | 0.851 | 0.901
HCC-44 | 0.754 | 0.796 | 0.801 | 0.68 | 0.705 | 0.97 | 0.999 | 1 | 0.953 | 0.947 | 1.04 | 0.916 | 1.02 | 1 | 1.24 | 1.12 | 1.05 | 1.09
HCC-78 | 0.5 | 0.336 | 0.346 | 0.368 | 0.504 | 0.734 | 0.629 | 0.771 | 0.787 | 0.848 | 0.46 | 0.509 | 0.475 | 0.503 | 0.487 | 0.422 | 0.465 | 0.43
HCC-366 | 0.356 | 0.317 | 0.154 | 0.26 | 0.12 | 0.345 | 0.313 | 0.269 | 0.292 | 0.182 | 0.603 |  | 0.368 | 0.533 | 0.454 |  | 0.339 | 0.436

— the supplement of paper PMC10307832
